In patent publication US20140121272A1, “DEODORIZATION OF PEROXYCARBOXYLIC ACIDS USING CHAOTROPIC AGENTS” (ECOLAB USA INC., priority 2012, published 2014):

Assay: pH of Oxonia Active after addition of the additive
Assay type: physicochemical
Details: for effect of the additive on the product's pH: Oxonia Active; for pH: additive dissolved in Oxonia Active
Procedure: The ability to remove odor from a concentrated peracetic acid product was evaluated. Oxonia Active is a concentrated peracetic acid product available from Ecolab, Inc. (St. Paul, Minn.). The commercial product has about 6% peracetic acid and 22% hydrogen peroxide.
Urea was dissolved into the Oxonia Active at various molar ratios to the peracetic acid level and the resulting effect on the product's odor was observed.

Row | pH (molar POAA/additive 1/0.25) | Compound | effect of the additive on the product's pH | pH (molar POAA/additive 0.5/1) | pH (molar POAA/additive 1/0.50) | pH (molar POAA/additive 1/1)
1 | – | Ammonium carbonate | raised the pH | 7.00 | 3.64 | 5.90
2 | 1.10 | NC(N)=O [Urea] | did not significantly change | 1.38 | 1.10 | 1.16
